Results on 7 compounds are retold here after US20250339546A1, “GLIOBLASTOMA TUMOR GROWTH INHIBITON BY SAT1 KNOCKDOWN” (BIOMARK CANCER SYSTEMS, INC., priority 2021, published 2025).

Read-outs that look alike come from different tables or passages of the source.

The test system of one series is U251 glioblastoma cells. As to the kind of experiment: Cell viability/proliferation MTT assay, U251. Format: cell-based, human. As to conditions: combined with SAT1 knockdown, DOX 0.1 μM, TOPO 0.2 μM. As for the experimental part:
(§1) Cells were transfected in T-25 flask as discussed above. Forty-eight hours after transfection, the cells were seeded in 96-well plates (5000 cells/well). After 24-hours, the cells were exposed to no treatment or either 10 Gy radiation (RS-2000, Rad Source Technologies, Inc., Buford, GA, USA) or anticancer drugs carmustine (i.e., BCNU™ or BiCNU™) (100 μM), Doxorubicin (0.1 μM) and Topotecan (0.2 μM). After 24 hours, the media and treatments were removed and replaced with fresh media and cultured for 48 hours. The percentage of viable cells was determined using MTT assay (Norouzi et al, 2020).
On the technique in general: Formazan colour is commonly taken as a measure of viable cells.

The test system of another series is macrophage cells (ANA-1). Briefly: Cell viability/proliferation MTT assay, ANA-1. The format is cell-based, murine. The settings on record: 0.1 μM. As for the experimental part: as §1
The target of series [1] is SAT1 (Homo sapiens, UniProt P21673). As for the experimental part:
FIG. 17C SAT1 induction was confirmed by Western blot analysis of the protein sample. (mean=+SD, n=3).
Next, SAT1 activity was assessed in U251 cells via production of acetylated-amantadine after treatment with the SAT1 substrate amantadine, or the production of acetylated-rimantadine after treatment with the SAT1 substrate rimantadine.

For the next series, the system named is BBB. Briefly: Bidirectional BBB permeability in the BBB microfluidic model. The method, then: Permeability coefficients are the mean±SD of 3 microfluidic units.
Finally, the bidirectional BBB permeability of amantadine and rimantadine, as well as their metabolites, was evaluated in the previously described model.

The test system of series [2] is SAT1. Briefly: SAT1 induction in U251 cells (mRNA and Western blot). Format: cell-based, human. As to conditions: 10 μM, 24 and 48 hours. From the text: SAT1 expression was next evaluated in U251 cells.
A further series relates to NAT1. As to the kind of experiment: NAT1 gene and protein expression in U251 cells. The format is cell-based, human. The settings on record: 10 μM, 24 h and 48 h.
The next series has as its system NAT2. Briefly: NAT2 gene and protein expression in U251 cells. The settings on record: 10 μM, 24 h and 48 h. Format: cell-based, human.

Chain of SAT1 (Homo sapiens, UniProt P21673) (P21673 whole entry): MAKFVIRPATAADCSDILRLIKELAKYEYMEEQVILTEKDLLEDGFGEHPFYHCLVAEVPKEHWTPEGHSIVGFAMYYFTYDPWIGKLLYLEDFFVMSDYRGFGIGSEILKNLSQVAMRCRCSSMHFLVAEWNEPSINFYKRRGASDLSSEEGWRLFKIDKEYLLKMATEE

For `COc1cccc2c1C(=O)c1c(O)c3c(c(O)c1C2=O)C[C@@](O)(C(=O)CO)C[C@@H]3O[C@H]1C[C@H](N)[C@H](O)[C@H](C)O1` [DOX, Doxorubicin], the cell viabilities/proliferation result with U251 glioblastoma cells was “lowest”. Further, the “sensitivity of cells to treatment” value in the series on macrophage cells (ANA-1) is given as “particularly sensitive”.

Regarding `CC(=O)NC(C)C12CC3CC(CC(C3)C1)C2` (stereo not drawn) [Ac-rimantadine, acetylated-rimantadine], at SAT1 [1], the “earliest detection after induction” value turned out to be 5 min and the “earliest detection after induction, in some cases” value is 3 min. Further, the BBB permeability entry in the series with BBB is given as “able to cross the BBB from the brain to blood efficiently”.

Consider `CC(N)C12CC3CC(CC(C3)C1)C2` (stereo not drawn) [rimantadine], for which, in the series with BBB, the BBB permeability result was “able to cross” and the “BBB permeability relative to amantadine” value is “slightly more permeable”.

Turning to `CCNCCCNCCCNCCCNCC` [DENSPM, N(1),N(11)-diethylnorspermine], in the series on SAT1 [2], the “SAT1 gene and protein expression” value was “enhanced”. The “NAT1 gene and protein expression levels” value in the series on NAT1 is on record as “did not significantly change”. Moreover, the “NAT2 gene and protein expression levels” value in the series with NAT2 is on record as “did not significantly change”.

Turning to `CC(=O)NC12CC3CC(CC(C3)C1)C2` [Ac-amantadine, acetylated-amantadine], on SAT1 [1], the “earliest detection after induction” value was 5 min and the “earliest detection after induction, in some cases” value was 3 min. The BBB permeability result in the series with BBB (from the brain to blood) was “able to cross the BBB from the brain to blood efficiently”.

With `NC12CC3CC(CC(C3)C1)C2` [amantadine], the BBB permeability result with BBB (from blood to the brain) is given as “able to cross”.

Turning to `CC[C@@]1(O)C(=O)OCc2c1cc1n(c2=O)Cc2cc3c(CN(C)C)c(O)ccc3nc2-1` [TOPO, Topotecan], the cell viabilities/proliferation result in the series on U251 glioblastoma cells is “lowest”.
